Measurements taken from patent US9814730B2 (FLAMINA HOLDING AG, priority 2013, dated 2017).

System: autocrine HCG production in adult cells
Assay: Inhibition of autocrine HCG production in adult cells (in vitro experiments)
Format: cell-based, human
Conditions: very low amount of active agent
Method: Extrapolations of in vitro experiments indicate that already 0.1 mg to 2 mg per kg body weight and per year, preferably 0.5 mg to 1 mg per kg body weight and per year of the active agent are sufficient. However, as detailed below the dosage can be up to a factor 5 higher and can thus range between 0.1 mg to 10 mg per kg body weight and per year.

Question: `C/C=C\[C@]1(O)CC[C@H]2[C@@H]3CCC4=CC(=O)CCC4=C3[C@@H](c3ccc(N(C)C)cc3)C[C@@]21C` [RU534, Aglepristone] was tested. Which “inhibition of autocrine HCG production” value did it give?
Answer: successfully achieved
